Measured values reported in ChEMBL document CHEMBL3102782, “Current status of the research and development of diacylglycerol O-acyltransferase 1 (DGAT1) inhibitors” (J Med Chem, 2013).
Values belong to the molecule of their own block, whether it stands above or below them.

Tests used:
Mus musculus = assay: Toxicity in DIO C57BL6 mouse assessed as body weight loss at 30 mg/kg, po administered qd from day 1 to 7 and bid from day 8 to 14 followed by single dose on day 15 morning; type: organism-based; design: dose 30 mg/kg, route oral; conditions: in vivo
Homo sapiens [1] = organism: Homo sapiens; assay: Reduction of triglyceride AUC in human; type: functional, organism-based
Homo sapiens [2] = organism: Homo sapiens; assay: Reduction of triglyceride AUC in human receiving 60% fat meal at >5 mg; type: functional; design: scale not given: the % may be the effect or the level left
Homo sapiens [3] = organism: Homo sapiens; assay: Reduction of triglyceride AUC in human relative to baseline; type: functional; design: scale not given: the % may be the effect or the level left
Homo sapiens [4] = organism: Homo sapiens; assay: Reduction of triglyceride AUC in human at 60 mg; type: functional; design: scale not given: the % may be the effect or the level left
[5] = Tmax in human; type: ADME, organism-based; conditions: in vivo
Homo sapiens [6] = assay: Reduction in triglycerides in familial chylomicronemia syndrome patients measured after 3 weeks of compound dosing; type: functional; design: scale not given: the % may be the effect or the level left

Structure (SMILES): CC1(C)Oc2ncnc(N)c2N=C1c1ccc([C@H]2CC[C@H](CC(=O)O)CC2)cc1
Activity (Mus musculus): 6.7%

EC50 (Homo sapiens [1]): 440 nM
Tmax [5]: 1 h
Structure (SMILES): Cc1nc(C)c(-c2ccc(C3CCC(CC(=O)O)CC3)cc2)nc1C(N)=O (configuration not stated) [AZD-7687]
Activity (Homo sapiens [2]): >75%
Activity (Homo sapiens [3]): 84%
Activity (Homo sapiens [4]): 50%

Structure (SMILES): O=C(O)C[C@H]1CC[C@H](c2ccc(-c3ccc(Nc4ccc(C(F)(F)F)nc4)cn3)cc2)CC1 [PRADIGASTAT]
Activity (Homo sapiens [6]): 38.4%
